Reference: ChEMBL document CHEMBL1201862, “PubChem BioAssay data set” (2004)
Calls of active or inactive are those of the source.

Key:
[1] = molecular target: Serine/threonine-protein kinase N2 (Homo sapiens, UniProt Q16513); assay type: functional
[2] = molecular target: Calcium/calmodulin-dependent protein kinase type II subunit delta (Homo sapiens, UniProt Q13557); assay type: functional
[3] = molecular target: Cyclin-dependent kinase 2 (Homo sapiens, UniProt P24941); assay type: functional;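 also: CDK2 measured as one member of a broad kinome profiling panel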
[4] = molecular target: Proto-oncogene tyrosine-protein kinase ROS (Homo sapiens, UniProt P08922); assay type: functional;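 also: ROS1 tested as one member of a kinome-wide kinase panel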
[5] = molecular target: Mitogen-activated protein kinase kinase kinase kinase 4 (Homo sapiens, UniProt O95819); assay type: functional
[6] = molecular target: MAP/microtubule affinity-regulating kinase 4 (Homo sapiens, UniProt Q96L34); test: Navigating the Kinome. Panel member name: MARK4; assay type: functional
[7] = molecular target: Serine/threonine-protein kinase SIK2 (Homo sapiens, UniProt Q9H0K1); test: Navigating the Kinome. Panel member name: SIK2; assay type: functional
Cytochrome P450 2C19 = Cytochrome P450 2C19 (Homo sapiens, UniProt P33261); test: Cytochrome panel assay with activity outcomes. Panel member name: p450-cyp2c19 Compounds with AC50 equal or less than 10 uM are considered active; assay type: functional; conditions: read-out: AC50
[8] = molecular target: MAP/microtubule affinity-regulating kinase 3 (Homo sapiens, UniProt P27448); assay type: functional;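 also: MARK3 affinity measured as one member of a kinome panel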
Troponin, cardiac muscle = Troponin, cardiac muscle (Homo sapiens, UniProt P19429+P45379+P63316); test: Fluorescence-based biochemical high throughput dose response assay for activators of the calcium sensitivity of cardiac Regulated Thin Filaments (RTF). [Related pubchem assays (depositor defined):AID493008, AID493018, AID504382, AID504383]; assay type: protein-complex assay
[9] = molecular target: T1, Replicative DNA helicase DnaB (Mycobacterium tuberculosis, UniProt P9WMR3); test: DnaB intein splicing inhibitors, dose response, biochemical, cell-free fluorescence (AID 449749); assay type: functional
T1 sequence (P9WMR3 whole entry): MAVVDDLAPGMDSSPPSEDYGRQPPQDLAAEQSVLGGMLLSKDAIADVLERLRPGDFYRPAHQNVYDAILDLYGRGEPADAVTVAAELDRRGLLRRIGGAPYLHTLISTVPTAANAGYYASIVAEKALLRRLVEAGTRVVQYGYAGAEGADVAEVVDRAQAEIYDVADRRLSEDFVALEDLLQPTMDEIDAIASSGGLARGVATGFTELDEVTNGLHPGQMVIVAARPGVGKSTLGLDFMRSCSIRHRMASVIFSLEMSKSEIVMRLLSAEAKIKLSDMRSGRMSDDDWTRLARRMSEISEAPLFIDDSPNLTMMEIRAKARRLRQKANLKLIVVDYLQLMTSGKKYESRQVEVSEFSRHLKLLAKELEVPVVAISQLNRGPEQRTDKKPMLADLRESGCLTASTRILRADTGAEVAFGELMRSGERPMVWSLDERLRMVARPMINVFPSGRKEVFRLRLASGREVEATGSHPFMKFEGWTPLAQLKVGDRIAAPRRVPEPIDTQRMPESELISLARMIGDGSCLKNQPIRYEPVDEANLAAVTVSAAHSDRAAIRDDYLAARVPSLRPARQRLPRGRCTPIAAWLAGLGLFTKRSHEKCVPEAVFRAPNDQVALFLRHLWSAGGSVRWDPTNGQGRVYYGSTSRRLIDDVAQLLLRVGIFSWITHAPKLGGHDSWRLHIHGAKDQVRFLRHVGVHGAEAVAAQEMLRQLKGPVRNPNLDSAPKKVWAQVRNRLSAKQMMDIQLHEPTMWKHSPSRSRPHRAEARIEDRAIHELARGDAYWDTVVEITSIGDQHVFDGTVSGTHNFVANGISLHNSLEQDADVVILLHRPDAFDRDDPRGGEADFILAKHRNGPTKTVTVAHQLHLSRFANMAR

ORF 73 = ORF 73 (Human herpesvirus 8, UniProt O40947); test: KSHV LANA DNA-binding disruption – biochemical, fluorescence polarization, cherry-picked samples, dose response (AID 504725); set-up: species or system Human gammaherpesvirus 8;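 also: fluorescence polarization of a labeled DNA duplex reporting LANA DNA binding; potency is for inhibitors that block LANA binding to the DNA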
Saccharomyces cerevisiae = test: S. cerevisiae Caspase-1/ASC signal blockers IC50, NALP1 inhibitor project selectivity test (AID 488863); assay type: functional, organism-based
[10] = molecular target: T2, RNA-binding protein pos-1 (Caenorhabditis elegans, UniProt G5EF15); test: disruptors of C. elegans POS-1 RNA interaction – biochemical, fluorescence polarization, dose response (AID 1964);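 also: purified POS-1 fused to maltose binding protein made in E. coli; potency of compounds blocking POS-1 binding to fluorescent RNA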
T2 sequence (G5EF15 whole entry): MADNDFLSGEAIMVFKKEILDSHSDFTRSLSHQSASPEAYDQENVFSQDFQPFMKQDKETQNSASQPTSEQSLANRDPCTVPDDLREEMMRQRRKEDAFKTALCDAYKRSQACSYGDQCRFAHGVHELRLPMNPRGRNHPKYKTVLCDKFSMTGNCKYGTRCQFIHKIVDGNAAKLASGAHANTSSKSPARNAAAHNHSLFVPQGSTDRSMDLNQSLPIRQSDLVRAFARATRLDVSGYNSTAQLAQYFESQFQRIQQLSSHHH

Caspase-6 = molecular target: T3, Caspase-6 (Homo sapiens, UniProt P55212); test: inhibition of CASP6 peptide cleavage – biochemical, VEID-R110 fluorescence, cherry-pick, dose response (AID 720632)
T3 sequence (P55212 whole entry): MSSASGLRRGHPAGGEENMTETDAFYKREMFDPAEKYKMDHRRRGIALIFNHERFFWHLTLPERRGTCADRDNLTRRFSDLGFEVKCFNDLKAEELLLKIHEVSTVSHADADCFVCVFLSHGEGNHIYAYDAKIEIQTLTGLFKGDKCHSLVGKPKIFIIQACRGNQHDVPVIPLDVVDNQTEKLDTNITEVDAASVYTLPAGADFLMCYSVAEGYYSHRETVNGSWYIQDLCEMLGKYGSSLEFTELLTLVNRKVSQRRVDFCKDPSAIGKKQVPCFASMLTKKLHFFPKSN

`CCCCC(=O)Nc1cc(-c2c[nH]c3ncccc23)cc(Cl)n1` was tested, and the Ki [1] was > 5.01 µM (inactive), the Ki [2] was > 3.16 µM (inactive) and the Ki [3] was > 3.16 µM (inactive).

`Oc1ccc(-c2nc(-c3ccncc3)c(-c3ccc(F)cc3)[nH]2)cc1` [SB-202190] was tested, and the Ki [4] was 2.51 µM (active), the Ki [5] was 1 µM (active) and the Ki [6] was > 5.01 µM (inactive). The Ki [7] was > 3.98 µM (inactive), the AC50 (Cytochrome P450 2C19) was 10 µM (inconclusive) and the Ki [8] was > 5.01 µM (inactive).

In the case of `c1ccc2nc3cc4[nH]cnc4cc3nc2c1`, the EC50 (Troponin, cardiac muscle) was 5.37 µM (active), the AC50 [9] was 19.5 µM (active) and the AC50 (ORF 73) was 7.45 µM (active). The IC50 (Saccharomyces cerevisiae) was 32.7 µM (active), the EC50 [10] was 7.59 µM (inconclusive) and the AC50 (Caspase-6) was 33 µM (active).
